Laboratory results taken from patent publication US20110212899A1, “Corneal Neuritogenesis Promoter Containing Pacap and Its Derivative” (priority 2004, published 2011).
Where no end group is shown, it is not given here.

What was measured:
Assay type in all cases: cell-based
[1] = tested on: excised rabbit lacrimal gland; assay: Promoting effect on protein secretion from an excised lacrimal gland (1) (Test Example 3)
Procedure: A lacrimal gland was excised from a rabbit and then treated with PACAP27 or peptide 17. Pharmacological effects of PACAP27 and peptide 17 on an increase in the protein secretion amount were examined.
(a) Purified water was added to sodium chloride (137.92 g), potassium chloride (7.01 g), calcium chloride dihydrate (3.53 g) and magnesium chloride hexahydrate (1.2 g) so that the total volume was 1000 mL (solution 1). Purified water was added to potassium dihydrogen phosphate (8.17 g) so that the total volume was 500 mL (solution 2). The solution 1 (50 mL) and the solution 2 (10 mL) were added to 900 mL of purified water, and in the resulting solution were dissolved glucose (2.07 g) and sodium hydrogen carbonate (2.1 g). The total volume of the resulting solution was adjusted to 1000 mL (pH about 7.4), which was used as a culture solution. A mixed gas of 95% oxygen and 5% carbon dioxide was allowed to pass through the culture solution.
(b) PACAP27 or peptide 17 was dissolved in the culture solution at a concentration of 10^−7 M, which was used as a test substance solution. Carbachol (Nacalai Tesque, Inc.), which has muscarinic agonist activity, was dissolved in the culture solution at a concentration of 10^−4 M, which was used as a control of the drugs (the carbachol-addition group). […]
(a) The section sample in a stationary state was incubated at 37° C. for 20 minutes in 0.5 mL of a fresh culture solution. […] The amount of protein in the culture solution was determined by using a protein staining reagent (DC Protein Assay Reagent, Bio Rad), and was converted into the protein secretion amount per 1 mg of the wet sample. […]
(b) The culture solution of the section sample after incubation obtained in (a) was replaced by 0.5 mL of the test substance solution. […] The protein amount in the collected solution was determined by using the protein staining reagent. In the same way, as a control group, the section sample was incubated in the culture solution which was replaced by a fresh culture solution and the protein amount in the culture solution was determined.

[2] = tested on: cultured rabbit trigeminal nerve cells; assay: Promoting effect on neuritogenesis in cultured rabbit trigeminal nerve cells (1) (Test Example 1); settings: final concentration 1 μM, cultured for 48 hours; control group 24.1%; p<0.001 vs non-addition group
From the text: Japanese white rabbits (2 to 3 days old) purchased from Kitayama Labes Co., Ltd. were used.
Rabbit trigeminal nerve cells were isolated according to a method reported by Chan et al. (Kwan Y. Chan and Richard H. Haschke, Exp. Eye Res. 41: 687-699, 1985). The rabbit was subjected to cardiac perfusion with physiological saline under ether anesthesia. A trigeminal ganglion was excised from the rabbit, and then dispersed in a nerve dispersion liquid (Sumitomo Bakelite Co., Ltd.) to prepare trigeminal nerve cells. The trigeminal nerve cells were cultured in Neurobasal medium (Invitrogen Corp) supplemented with B27 Supplement (Invitrogen Corp; final concentration: 2% v/v) and L-glutamine (Invitrogen Corp; final concentration: 1 mM) under 5% CO2 and 95% air at a humidity of 100% and a temperature of 37° C. […]
For evaluating neuritogenesis in the cultured rabbit trigeminal nerve cells, the lengths of the longest neurite and the major axis of the cell body in the stained cell images scanned into the computer were measured using image analysis software (Image-Pro Plus ver. 4.0, Planetron, Inc.) The cells in 3 wells for each group were measured. […] The proportion (%) of the neurite forming cells in the total cell number was calculated (Otori, Y., Wei, J. Y., Barnstable, C. J., Invest. Opthalmol. Vis. Sic., (1998)39, 972-981).

[3] = tested on: excised rabbit lacrimal gland; assay: Promoting effect on protein secretion from an excised lacrimal gland (2) (Test Example 5); settings: carbachol 10^−4 M, incubated 60 minutes; p<0.05
Procedure: A lacrimal gland was excised from a rabbit and incubated in a solution containing PACAP27 or peptide 24, and changes in the amount of secreted protein were examined as lacrimal gland stimulating activity.
Japanese white rabbits with a body weight of 1.5 to 2.0 kg purchased from Fukusaki Rabbit warren were used. The animals were each put in separate cages placed in a room wherein a temperature of 23±3° C. and a humidity of 55±10% were kept and a light was on for 12 hours per day (lighting at 8:00 and lights-out at 20:00), and raised after arrival until the final day of the test. The animals were given 100 g of solid feed (Labo R Stock, Nosan Corporation) per day, and could freely have tap water.
PACAP27 and peptide 24 were used as test substances. Test substance solutions were prepared as follows. […]
The section sample in a stationary state was incubated in 0.5 mL of a fresh incubation solution at 37° C. for 20 minutes under a mixed gas atmosphere of 95% oxygen and 5% carbon dioxide. After completion of the incubation, the incubation solution was collected, and the protein amount in the solution was determined by using a protein staining reagent (DC Protein Assay Reagent, Bio Rad). […] The incubation solution was collected, and the protein amount in the incubation solution was determined. […]

Compound	duration of the action of the drug compared with the carbachol-addition group ([1]; 10^−7 M vs carbachol 10^−4 M)	protein secretion rate of excised lacrimal gland ([1]; 10^−7 M, at 20 minutes after initiation of the treatment and thereafter, p<0.05 vs control)	proportion (%) of the neurite forming cells in the total cell number [2] [%]	protein secretion rate of excised lacrimal gland ([1]; carbachol 10^−4 M (control of the drugs))	protein secretion rate of excised lacrimal gland compared with control group [3]
His-Ser-Asp-Ala-Ile-Phe-Thr-Asp-Ser-Tyr-Ser-Arg-Tyr-Arg-Arg-Gln-Leu-Ala-Val-Arg-Arg-Tyr-Leu-Ala-Ala-Val-Leu-Gly-Arg-Arg-OH (HSDAIFTDSYSRYRRQLAVRRYLAAVLGRR-OH) [Peptide 17]	lasted longer	significantly increased	54.1	–	–
C[N+](C)(C)CCOC(N)=O [carbachol, Carbachol, reference compound]	–	–	–	significant increase	significant increase
